Laboratory results taken from patent US8198273B2, “Compounds and methods for kinase modulation, and indications therefor” (Plexxikon Inc., priority 2009, dated 2012).

How the values were obtained:
CYP2C9 = CYP2C9 (Homo sapiens, UniProt P11712); experiment: CYP2C9 inhibition (fluorescent substrate); type: in vitro ADME; settings: CYP2C9, MFC substrate; read-out: Cyp IC50 2C9
How it was run: (§1)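 Human CYP activity was followed by the fluorescence of the metabolized product of a known substrate, which falls as metabolism is inhibited. Compounds from 100 mM DMSO stocks were serially diluted 1:1 over 10 points in co-factor mix and preincubated 10 min at 37 °C. IC50 was fitted from signal versus concentration.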

[1] = system: SW620 colon adenocarcinoma cells (wild-type B-RAF); experiment: SW620 cell growth inhibition (ATPlite); type: cell-based; settings: Homo sapiens, SW-620, 72 h; SW620, 3 days incubation
How it was run: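 Cells plated overnight, then exposed 3 days at 37° C to 8-point 1:3 compound dilutions topping at 10 μM final. Viability read as ATPlite luminescence, proportional to cell number; IC50 from luminescence versus concentration.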

B-Raf = B-Raf (Homo sapiens, UniProt P15056); experiment: B-Raf biochemical kinase inhibition (AlphaScreen, biotin-MEK1 substrate); settings: 100 μM ATP
How it was run: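 Raf kinases phosphorylating biotin-MEK1, reaction started with ATP at 100 μM final. Compounds tested at 8 points by serial dilution from a 0.1 mM DMSO stock.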

CYP2D6 = CYP2D6 (Homo sapiens, UniProt P10635); experiment: CYP2D6 inhibition (fluorescent substrate); type: in vitro ADME; settings: CYP2D6, AMMC substrate; read-out: Cyp IC50 2D6
How it was run: as §1

Sequence of B-Raf (P15056 whole entry): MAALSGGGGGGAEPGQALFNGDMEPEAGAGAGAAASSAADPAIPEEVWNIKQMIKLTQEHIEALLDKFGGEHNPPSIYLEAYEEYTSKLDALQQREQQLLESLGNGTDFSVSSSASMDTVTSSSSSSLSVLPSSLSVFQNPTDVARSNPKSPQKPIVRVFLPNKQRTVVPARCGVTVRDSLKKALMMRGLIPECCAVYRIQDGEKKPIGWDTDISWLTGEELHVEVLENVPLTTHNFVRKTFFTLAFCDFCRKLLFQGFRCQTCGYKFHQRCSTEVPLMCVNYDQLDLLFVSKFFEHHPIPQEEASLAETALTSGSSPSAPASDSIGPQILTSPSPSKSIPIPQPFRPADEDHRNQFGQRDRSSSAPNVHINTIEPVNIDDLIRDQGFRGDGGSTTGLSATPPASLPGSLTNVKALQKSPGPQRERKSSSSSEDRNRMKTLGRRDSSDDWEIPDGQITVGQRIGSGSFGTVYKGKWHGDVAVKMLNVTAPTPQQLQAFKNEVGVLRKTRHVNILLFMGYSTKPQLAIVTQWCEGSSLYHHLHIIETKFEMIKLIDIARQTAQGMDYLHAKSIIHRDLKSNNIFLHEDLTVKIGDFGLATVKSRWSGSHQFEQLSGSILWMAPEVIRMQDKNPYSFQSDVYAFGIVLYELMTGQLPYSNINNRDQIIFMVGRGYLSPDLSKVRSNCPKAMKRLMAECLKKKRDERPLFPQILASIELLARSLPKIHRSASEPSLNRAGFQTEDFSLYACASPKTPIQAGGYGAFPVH
Sequence of CYP2D6 (P10635 whole entry): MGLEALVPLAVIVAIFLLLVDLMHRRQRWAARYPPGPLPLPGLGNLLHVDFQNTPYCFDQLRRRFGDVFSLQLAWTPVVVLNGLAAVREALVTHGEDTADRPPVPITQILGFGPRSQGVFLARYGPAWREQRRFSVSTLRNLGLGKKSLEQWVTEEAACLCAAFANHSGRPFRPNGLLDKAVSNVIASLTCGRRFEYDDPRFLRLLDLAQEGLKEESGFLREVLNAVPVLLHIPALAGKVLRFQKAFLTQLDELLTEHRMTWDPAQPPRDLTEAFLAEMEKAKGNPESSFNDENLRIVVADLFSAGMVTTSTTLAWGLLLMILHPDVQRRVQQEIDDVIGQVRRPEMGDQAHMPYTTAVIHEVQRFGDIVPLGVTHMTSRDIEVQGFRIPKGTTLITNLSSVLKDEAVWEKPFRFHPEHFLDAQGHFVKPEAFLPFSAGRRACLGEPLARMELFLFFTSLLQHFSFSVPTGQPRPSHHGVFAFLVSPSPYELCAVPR
Sequence of CYP2C9 (P11712 whole entry): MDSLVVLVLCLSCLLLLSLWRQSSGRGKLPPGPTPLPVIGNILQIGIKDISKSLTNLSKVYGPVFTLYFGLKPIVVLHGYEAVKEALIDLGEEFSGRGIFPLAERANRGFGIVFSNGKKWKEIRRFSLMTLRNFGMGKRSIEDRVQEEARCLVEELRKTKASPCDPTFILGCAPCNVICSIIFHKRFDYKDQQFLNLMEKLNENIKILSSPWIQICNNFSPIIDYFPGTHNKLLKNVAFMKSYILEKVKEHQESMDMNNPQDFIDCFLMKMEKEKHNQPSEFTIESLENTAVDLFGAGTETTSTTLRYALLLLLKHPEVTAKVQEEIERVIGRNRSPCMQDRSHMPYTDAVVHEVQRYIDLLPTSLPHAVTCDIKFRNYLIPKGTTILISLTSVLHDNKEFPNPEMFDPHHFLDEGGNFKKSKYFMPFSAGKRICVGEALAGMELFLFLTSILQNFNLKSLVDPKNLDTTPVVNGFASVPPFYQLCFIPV

IC50 (CYP2C9): 5 to 10 µM
IC50 [1]: > 10 µM
IC50 (B-Raf): < 100 nM
IC50 (CYP2D6): > 10 µM
SMILES: CCCS(=O)(=O)Nc1ccc(F)c(C(=O)c2c[nH]c3ncc(-c4ccc(N(C)C)nc4)cc23)c1F [P-2229, Propane-1-sulfonic acid {3-[5-(6-dimethylamino-pyridin-3-yl)-1H-pyrrolo[2,3-b]pyridine-3-carbonyl]-2,4-difluoro-phenyl}-amide]
